ChEMBL document CHEMBL3272227, “Conformationally restricted analogs of histamine H1 receptor antagonists: trans and cis-1-benzyl-3-dimethylamino-6-phenylpiperidine” (J Med Chem, 1976)
pEC50, pKi: −log10 of the molar value. Calls of active or inactive are those of the source. The rule behind the calls is not given here.

Columns and labels:
Ileum [1] = assay: Inhibition of acetylcholine-induced contraction in guinea pig ileum at 0.1 uM treated for 15 mins prior to acetylcholine challenge; type: functional, tissue-based; conditions: Cavia porcellus
[2] = molecular target: Histamine H1 receptor (Cavia porcellus) (UniProt P31389); assay: Antagonist activity at histamine H1 receptor in guinea pig ileum assessed as inhibition of histamine-induced contraction at 0.1 uM treated for 15 mins prior to histamine challenge; type: tissue-based
Histamine H1 receptor (Cavia porcellus), sequence (P31389 whole entry): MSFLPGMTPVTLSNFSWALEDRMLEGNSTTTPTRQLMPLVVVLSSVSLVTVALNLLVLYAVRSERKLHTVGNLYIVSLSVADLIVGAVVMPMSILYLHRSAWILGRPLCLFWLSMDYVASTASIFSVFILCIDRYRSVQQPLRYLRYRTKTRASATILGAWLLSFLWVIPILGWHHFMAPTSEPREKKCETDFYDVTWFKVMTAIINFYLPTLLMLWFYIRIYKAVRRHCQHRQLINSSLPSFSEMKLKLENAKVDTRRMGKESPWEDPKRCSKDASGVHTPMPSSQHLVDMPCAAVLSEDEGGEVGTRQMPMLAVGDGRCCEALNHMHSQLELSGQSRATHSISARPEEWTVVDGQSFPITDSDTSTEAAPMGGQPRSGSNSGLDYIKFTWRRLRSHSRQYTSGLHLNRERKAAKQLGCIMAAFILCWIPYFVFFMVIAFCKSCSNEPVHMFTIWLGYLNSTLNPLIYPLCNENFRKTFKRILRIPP

[3] = molecular target: Histamine N-methyltransferase (Cavia porcellus, UniProt Q9EST2); assay: Inhibition of histamine N-methyltransferase in guinea pig brain using S-adenosyl-L-methionine-14C as substrate by scintillation spectrophotometer
Histamine N-methyltransferase, sequence (Q9EST2 whole entry): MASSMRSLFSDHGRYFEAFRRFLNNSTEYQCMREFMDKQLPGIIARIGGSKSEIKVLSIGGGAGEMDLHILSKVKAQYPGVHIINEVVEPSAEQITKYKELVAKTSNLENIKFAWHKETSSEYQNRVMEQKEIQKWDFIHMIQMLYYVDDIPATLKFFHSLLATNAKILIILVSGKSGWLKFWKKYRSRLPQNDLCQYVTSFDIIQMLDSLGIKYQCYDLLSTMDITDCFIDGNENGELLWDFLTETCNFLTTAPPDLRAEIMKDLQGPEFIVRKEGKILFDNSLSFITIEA

Ileum [4] = assay: Inhibition of acetylcholine-induced contraction in guinea pig ileum treated for 15 mins prior to acetylcholine challenge; type: functional; conditions: Cavia porcellus, read-out: ED50 (the source's name)
[5] = molecular target: Histamine H1 receptor (Cavia porcellus) (UniProt P31389); assay: Antagonist activity at histamine H1 receptor in guinea pig ileum assessed as inhibition of histamine-induced contraction treated for 15 mins prior to histamine challenge; type: tissue-based
Ileum [6] = assay: Inhibition of barium chloride-induced contraction in guinea pig ileum at 5 uM; type: functional; conditions: Cavia porcellus
Ileum [7] = assay: Inhibition of barium chloride-induced contraction in guinea pig ileum at 2 uM; type: functional; conditions: Cavia porcellus
[8] = molecular target: Histamine H1 receptor (Cavia porcellus) (UniProt P31389); assay: Antagonist activity at histamine H1 receptor in guinea pig ileum assessed as inhibition of histamine-induced contraction at 50 nM treated for 15 mins prior to histamine challenge; type: tissue-based
[9] = molecular target: Histamine H1 receptor (Cavia porcellus) (UniProt P31389); assay: Antagonist activity at histamine H1 receptor in guinea pig ileum assessed as inhibition of histamine-induced contraction at 10 nM treated for 15 mins prior to histamine challenge; type: tissue-based

Row | pKi [3] | pEC50 (Ileum [4]) | ED50 [5] [µM] | Structure (SMILES) | further results
1 |  |  |  | CN(C)CCN(Cc1ccccc1)c1ccccn1 | inhibition (Ileum [1]): inactive; inhibition [2]: 66%
2 | 3.61 | 5.54 | 6.72 | CN(C)[C@H]1CC[C@H](c2ccccc2)N(Cc2ccccc2)C1 (relative stereo) | inhibition at 5 µM (Ileum [6]): 39%
3 | 4.50 | 5.84 | 1.83 | CN(C)[C@@H]1CC[C@H](c2ccccc2)N(Cc2ccccc2)C1 (relative stereo) | inhibition at 2 µM (Ileum [7]): 50%
4 |  |  |  | CN(C)[C@@H]1C[C@H](c2ccccc2)N(c2ccccc2)C1 (relative stereo) | inhibition [8]: 45%
5 |  |  |  | CN(C)[C@H]1C[C@H](c2ccccc2)N(c2ccccc2)C1 (relative stereo) | inhibition [9]: 85%
